Measured values taken from article PMC2981568 (PLoS ONE, 2010).

Columns and labels:
[1] = target: T1, MtbPRPPase (phosphoribosylpyrophosphate synthetase) (Mycobacterium tuberculosis, UniProt P9WKE3); experiment: […]; inhibition curve and steady-state kinetics ([…] Pi; IC50 […] at […] Pi); format: biochemical
T1 construct: gene prs

[2] = target: T1, MtbPRPPase (phosphoribosylpyrophosphate synthetase); experiment: biochemical
[3] = target: the molecule itself; experiment: SEC

## Nc1ncnc2c1ncn2[C@@H]1O[C@H](COP(=O)(O)OP(=O)(O)O)[C@@H](O)[C@H]1O [ADP]
[1]
  IC50: 400 µM

## Nc1nc2c(ncn2[C@@H]2O[C@H](COP(=O)(O)OP(=O)(O)O)[C@@H](O)[C@H]2O)c(=O)[nH]1 [GDP]
[2]
  IC50: > 5000 µM

B1: Mycobacterium tuberculosis phosphoribosylpyrophosphate synthetase (enzyme)
chain: MSHDWTDNRKNLMLFAGRAHPELAEQVAKELDVHVTSQDAREFANGEIFVRFHESVRGCDAFVLQSCPAPVNRWLMEQLIMIDALKRGSAKRITAVMPFYPYARQDKKHRGREPISARLIADLLKTAGADRIVTVDLHTDQIQGFFDGPVDHMRGQNLLTGYIRDNYPDGNMVVVSPDSGRVRIAEKWADALGGVPLAFIHKTRDPRVPNQVVSNRVVGDVAGRTCVLIDDMIDTGGTIAGAVALLHNDGAGDVIIAATHGVLSDPAAQRLASCGAREVIVTNTLPIGEDKRFPQLTVLSIAPLLASTIRAVFENGSVTGLFDGDA
notes: also called MtbPRPPase; M. tuberculosis PRPPase; not shown: His6, N-terminal, kept
[3]
  stoichiometry N: 6
